Measurements taken from patent publication US10029994B2, “Isoxazole hydroxamic acid compounds as LpxC inhibitors” (priority 2014, dated 2018).
Like-named read-outs stand apart in the source and are kept apart here.

Columns and labels:
P. A. PAO1 NB52019 = test: MIC, broth microdilution (CLSI); assay type: cell-based, Pseudomonas aeruginosa; details: for MIC: Pseudomonas aeruginosa, read-out: P. A. PAO1 NB52019 MIC
Protocol: (§1) Bacterial isolates were cultivated from −70° C. frozen stocks by two consecutive overnight passages at 35° C. in ambient air on 5% blood agar (Remel, Lenexa, Kans.). Quality control strain, P. aeruginosa ATCC 27853, A. baumannii ATCC19606 and E. coli ATCC 25922 are from the American Type Culture Collection (ATCC; Rockville, Md.) and PAO1 was received from Dr. K. Poole.
(§2) Minimal Inhibitory Concentrations (MICs) were determined by the broth microdilution method in accordance with Clinical and Laboratories Institute (CLSI) guidelines (CLSI M100-S25, Performance Standards for Antimicrobial Susceptibility Testing; Twenty-fifth Informational Supplement). In brief, fresh bacterial overnight cultures were resuspended in sterile saline, adjusted to a 0.5 McFarland turbidity standard and then diluted 2000-fold in cation adjusted Mueller-Hinton Broth II (MHB; Remel BBL) to yield a final inoculum of approximately 5×10^5 colony-forming units (CFU)/mL. Two-fold serial dilutions of compounds were prepared in 100% dimethyl sulfoxide (DMSO) at 100-fold the highest final assay concentration; the resulting dilution series of compounds were diluted 1:10 with sterile water. Ten μl of the drug dilution series in 10% DMSO was transferred to microtiter wells and 90 μl of bacterial suspension was inoculated into the wells. For testing the ability of compounds to potentiate the activity of known antibiotics, the assay was modified as follows; known antibiotics were added to the bacterial inoculum at 1.1-fold the final assay concentration indicated in Table A. All inoculated microdilution trays were incubated in ambient air at 35° C. for 20 hours. Following incubation, assay plates were read in a microtiter plate reader at 600 nm and visually inspected to confirm the MIC endpoint well with the OD value. The lowest concentration of the compound that prevented visible growth was recorded as the MIC. Performance of the assay was monitored by testing ciprofloxacin against the laboratory quality control strain in accordance with guidelines of the CLSI.

E. C. ATCC 25922 = test: MIC, broth microdilution (CLSI); assay type: cell-based, Escherichia coli; details: for MIC: Escherichia coli, ATCC25922, 20 h, read-out: E. C. ATCC 25922 MIC
Protocol: as §1, §2

E. C. ATCC 29522 = test: MIC in the presence of sub-inhibitory rifampicin (potentiation/synergy); assay type: cell-based, Escherichia coli; details: +2 μg/ml rifampicin (RIF); broth microdilution, 35° C., 20 hours
Protocol: as §1, §2

A. B. ATCC 19606 [1] = test: MIC, broth microdilution (CLSI); assay type: cell-based, Acinetobacter baumannii; details: for MIC: Acinetobacter baumannii, read-out: A. B. ATCC 19606 MIC
Protocol: as §1, §2

A. B. ATCC 19606 [2] = test: MIC in the presence of sub-inhibitory rifampicin (potentiation/synergy); assay type: cell-based, Acinetobacter baumannii; details: +2 μg/ml rifampicin (RIF); broth microdilution, 35° C., 20 hours
Protocol: as §1, §2

P. aeruginosa LpxC = biological target: T1, P. aeruginosa LpxC (Pseudomonas aeruginosa, UniProt P47205); test: P. aeruginosa LpxC Inhibition Assay (LC-MS/MS); assay type: biochemical; details: 1 nM P. aeruginosa LpxC, 30 min pre-incubation, 2 μM UDP-3-O-(R-3-hydroxydecanoyl)-GlcNAc, pH 7.5
T1 construct: made in house
T1 sequence (P47205 1-303): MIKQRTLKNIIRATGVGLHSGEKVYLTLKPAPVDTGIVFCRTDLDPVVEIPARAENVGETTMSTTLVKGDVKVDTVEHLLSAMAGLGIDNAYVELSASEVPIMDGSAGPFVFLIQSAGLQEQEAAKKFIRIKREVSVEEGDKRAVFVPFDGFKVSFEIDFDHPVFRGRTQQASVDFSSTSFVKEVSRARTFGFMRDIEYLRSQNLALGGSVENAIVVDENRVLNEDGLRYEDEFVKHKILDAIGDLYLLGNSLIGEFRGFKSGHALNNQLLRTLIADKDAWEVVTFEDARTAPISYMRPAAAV
Description: P. aeruginosa LpxC Inhibition Assay
The P. aeruginosa LpxC protein is produced according to the general method of Hyland et al (Journal of Bacteriology 1997 179, 2029-2037: Cloning, expression and purification of UDP-3-O-acyl-GlcNAc deacetylase from Pseudomonas aeruginosa: a metalloamidase of the lipid A biosynthesis pathway). The LC-MS/MS method for quantitation of LpxC product was developed using an Agilent 1200 Capillary HPLC system coupled to an Applied Biosystems MDS Sciex 4000QTRAP mass spectrometer. Both instruments are controlled using the Applied Biosystems MDS Sciex Analyst software. LpxC reaction product (UDP-3-O—(R-3-hydroxyacyl)-glucosamine) was produced by hydrolysis of LpxC substrate catalyzed by P.a. LpxC and purified using reversed phase chromatography on a Phenomenex Luna C18(2) 4.6×50 mm column. An LpxC product calibration curve was generated to evaluate the sensitivity and dynamic range of the LC-MS/MS method. Briefly, compounds are pre-incubated with 1 nM P. aeruginosa LpxC for 30 min. at room temperature. Reactions are initiated by the addition of 2 μM UDP-3-O—(R-3-hydroxydecanoyl)-GlcNAc. Reactions are conducted in a 384-well plate with a total volume of 50 μL in each well containing 50 mM Sodium phosphate pH 7.5, 0.005% Trition X-100 for 20 min at room temperature. After quenching with 1.8% HOAc (5 μL of a 20% HOAc added to each well), reaction mixtures are analyzed using the LC-MS/MS method and peak areas are transformed into product concentration using a LpxC product calibration curve. Total activity (0% inhibition control) is obtained from reactions with no inhibitors and 100% inhibition control is the background using quenched samples before reaction starts. For IC50 determinations, peak areas are converted to percent inhibition in Microsoft Excel. Percent inhibition values are plotted vs. log compound concentration using XLfit. Data is fit to the four-parameter logistic equation using the non-linear regression algorithm in XLfit to return the IC50 and hill slope values.

[3] = PAO1, broth microdilution, 35° C., 20 hours
[4] = broth microdilution, 35° C., 20 hours
[5] = ATCC19606, broth microdilution, 35° C., 20 hours

Row | SMILES | MIC (P. A. PAO1 NB52019; [3]) | MIC (E. C. ATCC 25922; [4]) | E. C. ATCC 29522 (+2 μg/ml RIF) MIC (E. C. ATCC 29522) | MIC (A. B. ATCC 19606 [1]; [5]) | A. B. ATCC 19606 (+2 μg/ml RIF) MIC (A. B. ATCC 19606 [2]) | P. A. PAO1 NB52019 MIC (P. A. PAO1 NB52019; [4]) | E. C. ATCC 25922 MIC (E. C. ATCC 25922; [4]) | A. B. ATCC 19606 MIC (A. B. ATCC 19606 [1]; [4]) | IC50 (P. aeruginosa LpxC) | MIC (P. A. PAO1 NB52019; PAO1, 20 h) | MIC (E. C. ATCC 25922) | MIC (A. B. ATCC 19606 [1]; ATCC19606, 20 h)
1 | COCC1CC(C#Cc2cc(CC[C@](C)(C(=O)NO)S(C)(=O)=O)no2)C1 (single isomer, unassigned) [Compound 1.15a] | 2 µg/mL | 8 µg/mL | 0.25 µg/mL | > 64 µg/mL | 0.25 µg/mL | – | – | – | – | – | – | –
2 | COCC1CC(C#Cc2cc(CC[C@](C)(C(=O)NO)S(C)(=O)=O)no2)C1 (single isomer, unassigned) [Compound 1.15b] | – | – | 0.25 µg/mL | – | 0.5 µg/mL | 2 µg/mL | 4 µg/mL | >64 µg/mL | – | – | – | –
3 | C[C@@](CCc1cc(C#CC2CC2)on1)(C(=O)NO)S(C)(=O)=O [Compound 1.1, (R)-4-(5-(cyclopropylethynyl)isoxazol-3-yl)-N-hydroxy-2-methyl-2-(methylsulfonyl)butanamide] | 0.25 µg/mL | 2 µg/mL | ≤0.06 µg/mL | > 64 µg/mL | 0.125 µg/mL | – | – | – | 3 nM | – | – | –
4 | C[C@@](CCc1cc(C#CC2CCC2)on1)(C(=O)NO)S(C)(=O)=O [Compound 1.2, (R)-4-(5-(cyclobutylethynyl)isoxazol-3-yl)-N-hydroxy-2-methyl-2-(methylsulfonyl)butanamide] | 0.125 µg/mL | 2 µg/mL | ≤0.06 µg/mL | > 64 µg/mL | ≤0.06 µg/mL | – | – | – | < 1 nM | – | – | –
5 | CC(C)(C)C#Cc1cc(CC[C@](C)(C(=O)NO)S(C)(=O)=O)no1 [Compound 1.3, (R)-4-(5-(3,3-dimethylbut-1-yn-1-yl)isoxazol-3-yl)-N-hydroxy-2-methyl-2-(methylsulfonyl)butanamide] | 0.25 µg/mL | 8 µg/mL | 2 µg/mL | > 64 µg/mL | 0.25 µg/mL | – | – | – | < 1 nM | – | – | –
6 | CC#Cc1cc(CC[C@](C)(C(=O)NO)S(C)(=O)=O)no1 [Compound 1.4, (R)—N-hydroxy-2-methyl-2-(methylsulfonyl)-4-(5-(prop-1-yn-1-yl)isoxazol-3-yl)butanamide] | 0.25 µg/mL | 4 µg/mL | ≤0.06 µg/mL | > 64 µg/mL | 2 µg/mL | – | – | – | 2 nM | – | – | –
7 | CCC#Cc1cc(CC[C@](C)(C(=O)NO)S(C)(=O)=O)no1 [Compound 1.5, (R)-4-(5-(but-1-yn-1-yl)isoxazol-3-yl)-N-hydroxy-2-methyl-2-(methylsulfonyl)butanamide] | 0.25 µg/mL | 4 µg/mL | ≤0.06 µg/mL | > 64 µg/mL | ≤0.06 µg/mL | – | – | – | 1 nM | – | – | –
8 | CC(C)C#Cc1cc(CC[C@](C)(C(=O)NO)S(C)(=O)=O)no1 [Compound 1.6, (R)—N-hydroxy-2-methyl-4-(5-(3-methylbut-1-yn-1-yl)isoxazol-3-yl)-2-(methylsulfonyl)butanamide] | 0.5 µg/mL | 4 µg/mL | 0.125 µg/mL | > 64 µg/mL | 0.125 µg/mL | – | – | – | < 1 nM | – | – | –
9 | C[C@@](CCc1cc(C#CC2CC(F)C2)on1)(C(=O)NO)S(C)(=O)=O (stereo partly drawn) [Compound 1.13, (R)-4-(5-((3-fluorocyclobutyl)ethynyl)isoxazol-3-yl)-N-hydroxy-2-methyl-2-(methylsulfonyl)butanamide] | 0.5 µg/mL | 16 µg/mL | 0.25 µg/mL | > 64 µg/mL | ≤0.06 µg/mL | – | – | – | – | – | – | –
10 | C[C@@](CCc1cc(/C=C/C2CC2)on1)(C(=O)NO)S(C)(=O)=O [Compound 4.2, (R,E)-4-(5-(2-cyclopropylvinyl)isoxazol-3-yl)-N-hydroxy-2-methyl-2-(methylsulfonyl)butanamide] | 0.25 µg/mL | 8 µg/mL | 0.125 µg/mL | > 64 µg/mL | 0.5 µg/mL | – | – | – | – | – | – | –
11 | C/C=C(/C)c1cc(CC[C@](C)(C(=O)NO)S(C)(=O)=O)no1 [Compound 4.3-2, (R,Z)-4-(5-(but-2-en-2-yl)isoxazol-3-yl)-N-hydroxy-2-methyl-2-(methylsulfonyl)butanamide] | – | – | 0.5 µg/mL | – | 8 µg/mL | – | – | – | – | 2 µg/mL | 16 µg/mL | > 64 µg/mL
12 | C[C@@](CCc1cc(/C(F)=C\C2CC2)on1)(C(=O)NO)S(C)(=O)=O [Compound 4.5-2, (R,E)-4-(5-(2-cyclopropyl-1-fluorovinyl)isoxazol-3-yl)-N-hydroxy-2-methyl-2-(methylsulfonyl)butanamide] | 8 µg/mL | 64 µg/mL | 2 µg/mL | > 64 µg/mL | 16 µg/mL | – | – | – | – | – | – | –
